Test system: subjects with T2DM and CKD stage 3B or 4
Assay: Phase 1b 28-day safety, tolerability and PK study in subjects with T2DM and CKD stage 3B or 4
Type: in vivo
Text: An Open Label, Parallel Arm Study to Assess the Safety, Tolerability, and Pharmacokinetics of Imeglimin in Subjects with Type 2 Diabetes Mellitus (T2DM) and Moderate to Severe Chronic Kidney Disease (CKD)
This Phase 1b study is to assess the safety, tolerability and pharmacokinetics (PK) of imeglimin in subjects with T2DM and CKD stage 3B or 4.
Subjects will be randomly allocated to receive one of three treatments or placebo.
Doses which are below the minimally acceptable doses are acceptable if stable for 12 weeks prior to Screening as per prescribing information. […] Primary Outcome Measures […]
Safety can be evaluated by assessment of clinical laboratory tests, physical examinations, vital signs measurements, and ECG readings at various time points during the study, and by the documentation of AEs.
The incidence of treatment-emergent adverse events (TEAE) will be summarized by treatment.
Plasma lactate will be summarized descriptively by absolute value at each visit by treatment group, together with the corresponding changes from baseline.
Pharmacokinetics (PK) data can be descriptively summarized by treatment group. PK parameters will be determined using noncompartmental methods. […] Steady-state can be evaluated using the trough concentration data.

With `C[C@H]1N=C(N(C)C)N=C(N)N1` [imeglimin, (6R)—N^2, N^2,6-trimethyl-3,6-dihydro-1,3,5-triazine-2,4-diamine] the “Subjects with any TEAE” value (500 mg BID, CKD3b (n = 8)) was 2 (25%) n, %, the “Subjects with any TEAE by maximum severity: Grade 1 - Mild” value (“Subjects with any TEAE … - Mild” below) (500 mg BID, CKD3b (n = 8)) was 1 (13%) n, % and the “Subjects with any TEAE by maximum severity: Grade 2 - Moderate” value (“Subjects with any TEAE … - Moderate” for short) (500 mg BID, CKD3b (n = 8)) was 1 (13%) n, %. The “Subjects with any TEAE by maximum severity: Grade 3 - Severe” value (from here on “Subjects with any TEAE … - Severe”) (500 mg BID, CKD3b (n = 8)) was 0 n, %, the “Subjects with any TEAE by maximum severity: Grade 4 - Life-threatening” value (“Subjects with any TEAE … - Life-threatening” below) (500 mg BID, CKD3b (n = 8)) was 0 n, % and the “Subjects with any TEAE by maximum severity: Grade 5 - Death” value (“Subjects with any TEAE … - Death” for short) (500 mg BID, CKD3b (n = 8)) was 0 n, %. For the same compound, the “Subjects with any study drug related TEAE” value (500 mg BID, CKD3b (n = 8)) was 0 n, %, the “Subjects with any study drug related TEAE: Grade 1 - Mild” value (500 mg BID, CKD3b (n = 8)) was 0 n, % and the “Subjects with any study drug related TEAE: Grade 2 - Moderate” value (500 mg BID, CKD3b (n = 8)) was 0 n, %. For the same compound, the “Subjects with any study drug related TEAE: Grade 3 - Severe” value (500 mg BID, CKD3b (n = 8)) was 0 n, %, the “Subjects with any study drug related TEAE: Grade 4 - Life-threatening” value (500 mg BID, CKD3b (n = 8)) was 0 n, % and the “Subjects with any study drug related TEAE: Grade 5 - Death” value (500 mg BID, CKD3b (n = 8)) was 0 n, %. For the same compound, the “TEAE: Gastrointestinal disorders” value (500 mg BID, CKD3b (n = 8)) was 1 (13%) n, %, the “Subjects with any TEAE” value (500 mg BID, CKD4 (n = 5)) was 1 (20%) n, % and the “Subjects with any TEAE … - Mild” value (500 mg BID, CKD4 (n = 5)) was 0 n, %. The “Subjects with any TEAE … - Moderate” value (500 mg BID, CKD4 (n = 5)) was 1 (20%) n, %, the “Subjects with any TEAE … - Severe” value (500 mg BID, CKD4 (n = 5)) was 0 n, % and the “Subjects with any TEAE … - Life-threatening” value (500 mg BID, CKD4 (n = 5)) was 0 n, %. The “Subjects with any TEAE … - Death” value (500 mg BID, CKD4 (n = 5)) was 0 n, %, the “Subjects with any study drug related TEAE” value (500 mg BID, CKD4 (n = 5)) was 0 n, % and the “Subjects with any study drug related TEAE: Grade 1 - Mild” value (500 mg BID, CKD4 (n = 5)) was 0 n, %. The “Subjects with any study drug related TEAE: Grade 2 - Moderate” value (500 mg BID, CKD4 (n = 5)) was 0 n, %, the “Subjects with any study drug related TEAE: Grade 3 - Severe” value (500 mg BID, CKD4 (n = 5)) was 0 n, % and the “Subjects with any study drug related TEAE: Grade 4 - Life-threatening” value (500 mg BID, CKD4 (n = 5)) was 0 n, %. The “Subjects with any study drug related TEAE: Grade 5 - Death” value (500 mg BID, CKD4 (n = 5)) was 0 n, %, the “TEAE: Gastrointestinal disorders” value (500 mg BID, CKD4 (n = 5)) was 0 n, % and the “Subjects with any TEAE” value (1000 mg BID, CKD3b (n = 6)) was 4 (67%) n, %. The “Subjects with any TEAE … - Mild” value (1000 mg BID, CKD3b (n = 6)) was 2 (33%) n, %, the “Subjects with any TEAE … - Moderate” value (1000 mg BID, CKD3b (n = 6)) was 2 (33%) n, % and the “Subjects with any TEAE … - Severe” value (1000 mg BID, CKD3b (n = 6)) was 0 n, %. The “Subjects with any TEAE … - Life-threatening” value (1000 mg BID, CKD3b (n = 6)) was 0 n, %, the “Subjects with any TEAE … - Death” value (1000 mg BID, CKD3b (n = 6)) was 0 n, % and the “Subjects with any study drug related TEAE” value (1000 mg BID, CKD3b (n = 6)) was 2 (33%) n, %. For the same compound, the “Subjects with any study drug related TEAE: Grade 1 - Mild” value (1000 mg BID, CKD3b (n = 6)) was 1 (17%) n, %, the “Subjects with any study drug related TEAE: Grade 2 - Moderate” value (1000 mg BID, CKD3b (n = 6)) was 1 (17%) n, % and the “Subjects with any study drug related TEAE: Grade 3 - Severe” value (1000 mg BID, CKD3b (n = 6)) was 0 n, %. For the same compound, the “Subjects with any study drug related TEAE: Grade 4 - Life-threatening” value (1000 mg BID, CKD3b (n = 6)) was 0 n, %, the “Subjects with any study drug related TEAE: Grade 5 - Death” value (1000 mg BID, CKD3b (n = 6)) was 0 n, % and the “TEAE: Gastrointestinal disorders” value (1000 mg BID, CKD3b (n = 6)) was 1 (17%) n, %. For the same compound, the “Subjects with any TEAE” value (1000 mg BID, CKD4 (n = 7)) was 4 (57%) n, %, the “Subjects with any TEAE … - Mild” value (1000 mg BID, CKD4 (n = 7)) was 2 (29%) n, % and the “Subjects with any TEAE … - Moderate” value (1000 mg BID, CKD4 (n = 7)) was 2 (29%) n, %. The “Subjects with any TEAE … - Severe” value (1000 mg BID, CKD4 (n = 7)) was 0 n, %, the “Subjects with any TEAE … - Life-threatening” value (1000 mg BID, CKD4 (n = 7)) was 0 n, % and the “Subjects with any TEAE … - Death” value (1000 mg BID, CKD4 (n = 7)) was 0 n, %. The “Subjects with any study drug related TEAE” value (1000 mg BID, CKD4 (n = 7)) was 1 (14%) n, %, the “Subjects with any study drug related TEAE: Grade 1 - Mild” value (1000 mg BID, CKD4 (n = 7)) was 1 (14%) n, % and the “Subjects with any study drug related TEAE: Grade 2 - Moderate” value (1000 mg BID, CKD4 (n = 7)) was 0 n, %. The “Subjects with any study drug related TEAE: Grade 3 - Severe” value (1000 mg BID, CKD4 (n = 7)) was 0 n, %, the “Subjects with any study drug related TEAE: Grade 4 - Life-threatening” value (1000 mg BID, CKD4 (n = 7)) was 0 n, % and the “Subjects with any study drug related TEAE: Grade 5 - Death” value (1000 mg BID, CKD4 (n = 7)) was 0 n, %. The “TEAE: Gastrointestinal disorders” value (1000 mg BID, CKD4 (n = 7)) was 2 (29%) n, %, the “Subjects with any TEAE” value (1500 mg QD, CKD3b (n = 17)) was 4 (57%) n, % and the “Subjects with any TEAE … - Mild” value (1500 mg QD, CKD3b (n = 17)) was 3 (43%) n, %. For the same compound, the “Subjects with any TEAE … - Moderate” value (1500 mg QD, CKD3b (n = 17)) was 1 (14%) n, %.
